Where two headings read alike, the source gives them in different places.
Test system: Stage IV cancer
Protocol: A ten-year, multi-center cancer study was conducted wherein we recruited a total of 675 Stage IV cancer patients. These patients were treated and closely monitored through four participating medical and naturopathic clinics, with each clinic following standard therapeutic, monitoring and reporting protocols for each patient over a minimum study period of five years. The patients in these studies were all diagnosed by standard diagnostic methods (e.g., using tumor visualization, cytology, biopsy, blood assays for circulating tumor markers, etc.) at the start of the study as having Stage IV cancer, according to conventional diagnostic standards. Cancer types were grouped by primary cancer cytology/histochemistry, patient history and other standard criteria.
Of the 675 enrolled patients, 128 patients entered the study with diagnosed Stage IV breast cancer, 91 with Stage IV colon/rectal cancer, 34 with Stage IV head/neck cancer, 86 with Stage IV lung cancer, 32 with Stage IV non-Hodgkin's lymphoma (NHL), 28 with Stage IV melanoma, 36 with Stage IV ovarian cancer, 37 with Stage IV pancreatic cancer, 76 with Stage IV prostate cancer, 18 with Stage IV renal cancer, 23 with Stage IV sarcoma, and 34 with Stage IV uterine cancer.
Many of the enrolled subjects in this clinical study presented with Stage IV cancer that had persisted for many months, and in many cases years, following a prior Stage IV cancer diagnosis, and after having undergone one or more failed rounds of conventional oncotherapy (typically a combination of surgery, chemotherapy, radiation and/or hormonal therapy as indicated). These subjects are classified as “non-responsive” to conventional oncotherapy. A majority of the remaining study subjects enrolled in our study after an original Stage III or Stage IV cancer diagnosis, followed by conventional oncotherapy prior to the study, and presented at the time of study enrollment with disease progression to Stage IV cancer or with relapse of a prior, treated cancer. These subjects are classified as “treatment resistant” or “refractory” Stage IV cancer patients.
All patients remained throughout the study period in contact with medical providers who maintained regular monitoring of the subject's disease condition (with regular exams, including blood work testing for cancer markers, cytology, CT scans, PET scans, biopsy where indicated, and other diagnostic monitoring). Many of the study patients, while classified as having “treatment-resistant” Stage IV disease, nonetheless continued with some form of conventional oncotherapy (e.g., low dose chemotherapy) as recommended by their oncologist. […] About half of these subjects received conventional dose chemotherapy at some point, while the remainder received “low dose chemotherapy” (e.g., using a 10-15% dosing of a standard chemotherapeutic drug such as a taxane). […] Additionally, patients with breast cancer, ovarian cancer, uterine cancer and prostate cancer remained on any oncologist-prescribed hormonal therapy.
In certain cases, all 15 iv treatments were administered over a consecutive 15-day period, while in others the 15 iv treatments were scheduled over as much as a one-month period to accommodate patient scheduling factors.
All subjects were regularly examined for diagnostic cancer indicators, assessed according to standard methods.

[1] = Stage IV Non-Hodgins Lymphoma, number of patients out of 32 studied
[2] = Stage IV breast cancer, number of patients out of 128 studied
[3] = Stage IV colon/rectal cancer, number of patients out of 91 studied
[4] = Stage IV head/neck cancer, number of patients out of 34 studied
[5] = Stage IV lung cancer, number of patients out of 86 studied
[6] = Stage IV melanoma, number of patients out of 29 studied
[7] = Stage IV non-Hodgkin's lymphoma
[8] = Stage IV ovarian cancer, number of patients out of 36 studied
[9] = Stage IV pancreatic cancer, number of patients out of 37 studied
[10] = Stage IV prostate cancer, number of patients out of 76 studied
[11] = Stage IV renal cancer, number of patients out of 18 studied
[12] = Stage IV sarcoma, number of patients out of 23 studied
[13] = Stage IV uterine cancer, number of patients out of 34 studied

4-(beta-D-allopyranosyloxy)-benzaldehyde [Salicinium]
therapeutic benefit (rates of stable disease, remission and survival) in smaller study groups (51 additional patients: ALL, AML, astrocytoma, bladder, CLL, esophageal, gall bladder, stomach, glioblastoma, Hodgkin's, liver, mesothelioma, myeloma, testicular, thyroid, five years): significant therapeutic benefits
Complete Remission, patient status through end of five year study period [1]: 6
Not Surviving, patient status through end of five year study period [1]: 15
Partial Remission, patient status through end of five year study period [1]: 5
Stable Disease, patient status through end of five year study period [1]: 6
five-year survival rate (Stage IV breast cancer): 69%
patients with stable disease or in partial remission at end of five-year study (Stage IV breast cancer): 53%
increase in five-year survival expectancy versus NIH median (Stage IV breast cancer, from 16% (NIH median) to 69%): greater than four-fold increase
Complete Remission, patient status through end of five year study period [2]: 21
Not Surviving, patient status through end of five year study period [2]: 39
Partial Remission, patient status through end of five year study period [2]: 30
Stable Disease, patient status through end of five year study period [2]: 38
patients in complete remission at end of five-year study (Stage IV breast cancer, of 128 enrolled): 16%
patients in total remission (Stage IV colon/rectal cancer): 5%
patients surviving with stable disease or partial remission (Stage IV colon/rectal cancer): 56%
total five-year survival percentage (Stage IV colon/rectal cancer, 91 patients): 61%
survival versus NIH median survival (Stage IV colon/rectal cancer, NIH median 8-15% (average 11.5%)): more than five-times greater
Complete Remission, patient status through end of five year study period [3]: 5
Not Surviving, patient status through end of five year study period [3]: 35
Partial Remission, patient status through end of five year study period [3]: 15
Stable Disease, patient status through end of five year study period [3]: 36
five-year survival (Stage IV head/neck cancer): 53%
subjects in complete remission (Stage IV head/neck cancer): 12%
subjects stable or in partial remission (Stage IV head/neck cancer): 41%
Complete Remission, patient status through end of five year study period [4]: 4
Not Surviving, patient status through end of five year study period [4]: 16
Partial Remission, patient status through end of five year study period [4]: 0
Stable Disease, patient status through end of five year study period [4]: 14
five-year survival (Stage IV lung cancer): 62%
patients stable or in partial remission (Stage IV lung cancer): 56%
total remission rate (Stage IV lung cancer): 6%
increase in survival expectancy compared to NIH published data (Stage IV lung cancer, NIH median survival 50%): > 10%
Complete Remission, patient status through end of five year study period [5]: 5
Not Surviving, patient status through end of five year study period [5]: 33
Partial Remission, patient status through end of five year study period [5]: 10
Stable Disease, patient status through end of five year study period [5]: 38
five-year survival (Stage IV melanoma): 52%
increase in patient survival over median survival (Stage IV melanoma, NIH 15-20%, average 17.5%): about a three-fold increase
Complete Remission, patient status through end of five year study period [6]: 0
Not Surviving, patient status through end of five year study period [6]: 14
Partial Remission, patient status through end of five year study period [6]: 8
Stable Disease, patient status through end of five year study period [6]: 7
five-year survival [7]: 53%
subjects in total remission [7]: 19%
subjects stable or in partial remission [7]: 34%
overall five-year survival rate (Stage IV ovarian cancer): 55%
subjects in complete remission at end of study (Stage IV ovarian cancer): More than 10%
survival versus NIH median survival (Stage IV ovarian cancer, NIH median 17%): more than three times
Complete Remission, patient status through end of five year study period [8]: 4
Not Surviving, patient status through end of five year study period [8]: 16
Partial Remission, patient status through end of five year study period [8]: 5
Stable Disease, patient status through end of five year study period [8]: 11
five-year survival rate (Stage IV pancreatic cancer): 46%
survival versus median survival expectancy (Stage IV pancreatic cancer, NIH median 4%): more than 11 times
Complete Remission, patient status through end of five year study period [9]: 0
Not Surviving, patient status through end of five year study period [9]: 20
Partial Remission, patient status through end of five year study period [9]: 0
Stable Disease, patient status through end of five year study period [9]: 17
five-year survival (Stage IV prostate cancer): 78%
patients in total disease remission (Stage IV prostate cancer): 20%
patients surviving in stable or partial remission status (Stage IV prostate cancer): 58%
survival versus NIH published median survival (Stage IV prostate cancer, NIH median 33%): more than double
Complete Remission, patient status through end of five year study period [10]: 15
Not Surviving, patient status through end of five year study period [10]: 16
Partial Remission, patient status through end of five year study period [10]: 23
Stable Disease, patient status through end of five year study period [10]: 22
five-year survival (Stage IV renal cancer): 56%
subjects in total remission (Stage IV renal cancer): 17%
subjects stable or in partial remission (Stage IV renal cancer): 39%
Complete Remission, patient status through end of five year study period [11]: 3
Not Surviving, patient status through end of five year study period [11]: 8
Partial Remission, patient status through end of five year study period [11]: 0
Stable Disease, patient status through end of five year study period [11]: 7
five-year survival (Stage IV sarcoma): 48%
subjects in total remission (Stage IV sarcoma): 9%
subjects stable or in partial remission (Stage IV sarcoma): 39%
Complete Remission, patient status through end of five year study period [12]: 2
Not Surviving, patient status through end of five year study period [12]: 12
Partial Remission, patient status through end of five year study period [12]: 2
Stable Disease, patient status through end of five year study period [12]: 7
five-year survival (Stage IV uterine cancer): 47%
subjects in total remission (Stage IV uterine cancer): 5%
subjects stable or in partial remission (Stage IV uterine cancer): 41%
Complete Remission, patient status through end of five year study period [13]: 2
Not Surviving, patient status through end of five year study period [13]: 18
Partial Remission, patient status through end of five year study period [13]: 4
Stable Disease, patient status through end of five year study period [13]: 10
